Molecular target: Avi-humanTEAD4 217-434 / Cy5 labeled humanYAP 60-100 (Homo sapiens (Human), UniProt Q15561)
Experiment: TR-FRET YAP-TEAD4 in-vitro biochemical assay
Type: binding
Conditions: 1 nM Avi-humanTEAD4 217-434, 20 nM Cy5-humanYAP 60-100, 1 h room temperature

Sequence of Avi-humanTEAD4 217-434 / Cy5 labeled humanYAP 60-100 (Q15561 217-434): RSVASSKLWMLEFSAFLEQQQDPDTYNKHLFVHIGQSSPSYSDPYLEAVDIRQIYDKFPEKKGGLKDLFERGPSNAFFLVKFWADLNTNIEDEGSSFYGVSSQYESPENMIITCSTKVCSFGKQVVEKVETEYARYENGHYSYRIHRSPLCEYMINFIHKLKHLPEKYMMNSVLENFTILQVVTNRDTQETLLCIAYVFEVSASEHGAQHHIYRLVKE

Row | SMILES | IC50 [nM]
1 | CNC(=O)[C@H]1CC[C@H](NC[C@@]2(c3ccccc3)Cc3c(ccc(Cl)c3-c3c(F)cccc3C(N)=O)O2)CC1 (relative stereo) [Example 139a, 2-((2S,4S)-5-Chloro-2-((((trans)-4-(methylcarbamoyl)cyclohexyl)amino)methyl)-2-phenyl-2,3-dihydrobenzofuran-4-yl)-3-fluorobenzamide] | 21
2 | NC(=O)c1ccc(OC(F)F)c(F)c1-c1c(Cl)c(F)cc2c1C[C@@](CNC1CCC3(CCC(=O)N3)CC1)(c1ccccc1)O2 (single isomer, unassigned) [Example 59a] | 6
3 | CO[C@H]1CC[C@H](NC[C@]2(c3ccccc3)Oc3cc(F)c(Cl)c(-c4c(C(N)=O)ccc(OC(F)F)c4F)c3[C@@H]2O)CC1 (relative stereo) [Example 136b, 2-((2S,3S,4S)-5-chloro-6-fluoro-3-hydroxy-2-((((trans)-4-methoxycyclohexyl)amino)methyl)-2-phenyl-2,3-dihydrobenzofuran-4-yl)-4-(difluoromethoxy)-3-fluorobenzamide] | 7
4 | CNC[C@]1(c2ccccn2)Oc2cc(F)c(Cl)c(-c3c(C(N)=O)ccc(OCCO)c3F)c2[C@@H]1C (atropisomer, axis not shown) [Example 112, 2-((2R,3S,4S)-5-chloro-6-fluoro-3-methyl-2-((methylamino)methyl)-2-(pyridin-2-yl)-2,3-dihydrobenzofuran-4-yl)-3-fluoro-4-(2-hydroxyethoxy)benzamide] | 1
5 | NC(=O)c1ccc(OC(F)F)c(F)c1-c1c(Cl)c(F)cc2c1[C@H](O)[C@@](CN[C@H]1CC[C@H](O)CC1)(c1ccccc1)O2 (relative stereo) [Example 100a, 2-((2S,3S,4S)-5-Chloro-6-fluoro-3-hydroxy-2-((((trans)-4-hydroxycyclohexyl)amino)methyl)-2-phenyl-2,3-dihydrobenzofuran-4-yl)-4-(difluoromethoxy)-3-fluorobenzamide] | 2
6 | NC[C@@]1(c2ccccc2)Cc2c(ccc(Cl)c2-c2c(C(N)=O)ccc(F)c2F)O1 (atropisomer, axis not shown) [Example 9, 2-((2S,4S)-2-(aminomethyl)-5-chloro-2-phenyl-2,3-dihydrobenzofuran-4-yl)-3,4-difluorobenzamide] | 4
7 | COc1ccc(C(N)=O)c(-c2c(Cl)ccc3c2[C@H](O)[C@@](CN)(c2ccccc2OC(F)(F)F)O3)c1F (atropisomer, axis not shown) [Example 93, 2-((2S,3S,4S)-2-(Aminomethyl)-5-chloro-3-hydroxy-2-(2-(trifluoromethoxy)phenyl)-2,3-dihydrobenzofuran-4-yl)-3-fluoro-4-methoxybenzamide] | 9
8 | CS(=O)(=O)COc1ccc(C(N)=O)c(-c2c(Cl)c(F)cc3c2C[C@@](CN)(c2ccccc2)O3)c1F (atropisomer, axis not shown) [Example 40, 2-((2S,4S)-2-(aminomethyl)-5-chloro-6-fluoro-2-phenyl-2,3-dihydrobenzofuran-4-yl)-3-fluoro-4-((methylsulfonyl)methoxy)benzamide] | 42

Second part, the molecule after the results:

Row | IC50 [nM] | SMILES
9 | 10 | NC(=O)c1ccc(OC(F)F)c(F)c1-c1c(Cl)c(F)cc2c1C[C@@](CNC1CCC(CO)CC1)(c1ccccc1)O2 (single isomer, unassigned) [Example 61b]
10 | 8 | NC(=O)c1ccc(OC(F)F)c(F)c1-c1c(Cl)c(F)cc2c1C[C@@](CNC1CCC(CO)CC1)(c1ccccc1)O2 (single isomer, unassigned) [Example 61a]
11 | 69 | CS(=O)(=O)N1CCC(NC[C@@]2(c3ccccc3)Cc3c(cc(F)c(Cl)c3-c3c(C(N)=O)ccc(OC(F)F)c3F)O2)CC1 (atropisomer, axis not shown) [Example 63, 2-((2S,4S)-5-chloro-6-fluoro-2-(((1-(methylsulfonyl)piperidin-4-yl)amino)methyl)-2-phenyl-2,3-dihydrobenzofuran-4-yl)-4-(difluoromethoxy)-3-fluorobenzamide]
12 | 5 | NC(=O)c1ccc(OC(F)F)c(F)c1-c1c(Cl)c(F)cc2c1C[C@@](CNC1CCC3(CCC(=O)N3)CC1)(c1ccccc1)O2 (single isomer, unassigned) [Example 59b]
